# From US8969375B2, “CDK9 kinase inhibitors” (AbbVie Inc., priority 2013, dated 2015)
# Marks after values point to notes of the source that are not given here.
# What was measured:
# [1] = tested on: A431 cells; test: Cell viability assay (Cell TiterGlo), A431 cells; format: cell-based
# Procedure: (§1) Cell viability assays were performed using A431 or H929 cells. A431 cells were seeded in 96-well plates at 10,000 cells/well, and after overnight incubation, treated with compounds at 2-times the final concentration to result in a dose response of 3-fold dilutions from 10 μM to 0.0005 μM (50 μL/well, 0.1% final DMSO concentration). H929 cells were seeded in 96-well plates at 10,000 cells/well and treated immediately with compounds as described above. After 24 hours at 37° C., cell viability was measured using Cell TiterGlo reagent (Promega) with a luminescence reader. Alternately, cell viability assays were performed in 384-well format. A431 cells were seeded in 384-well plates at 2500 cells/well and, after overnight incubation, treated with compounds in a dose response of 3-fold dilutions from 10 μM to 0.0005 μM ([…], 0.1% final DMSO concentration). For the H929 viability assay, […] of the compounds was dispensed into 384-well plates in a dose response as described above and cells were immediately seeded in 384-well plates at 2500 cells/well. After 24 hours at […], cell viability was measured using Cell TiterGlo reagent (Promega) with a luminescence reader.
# [2] = tested on: H929 cells; test: Cell viability assay (Cell TiterGlo), H929 cells; format: cell-based, human
# Procedure: as §1
# [3] = biological target: T1, CDK9/Cyclin T1 (Homo sapiens, UniProt P50750); test: CDK9 enzyme activity, LANCE ULight TR-FRET kinase assay; format: biochemical; conditions: 1000 μM ATP, 4 nM CDK9/Cyclin T1, 30 minutes
# T1 construct: purchased Carna Biosciences 04-110
# T1 sequence (P50750 whole entry): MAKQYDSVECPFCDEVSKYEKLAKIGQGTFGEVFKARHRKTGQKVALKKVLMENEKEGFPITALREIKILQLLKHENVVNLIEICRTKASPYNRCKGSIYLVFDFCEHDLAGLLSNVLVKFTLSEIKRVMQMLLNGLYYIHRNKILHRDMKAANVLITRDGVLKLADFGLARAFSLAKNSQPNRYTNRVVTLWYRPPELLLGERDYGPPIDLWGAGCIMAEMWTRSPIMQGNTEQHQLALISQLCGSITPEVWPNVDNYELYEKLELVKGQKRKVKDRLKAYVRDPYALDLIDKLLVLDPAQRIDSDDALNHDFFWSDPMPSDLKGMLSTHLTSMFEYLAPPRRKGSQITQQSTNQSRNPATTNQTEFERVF
# T1 sequence (O60563 whole entry partner): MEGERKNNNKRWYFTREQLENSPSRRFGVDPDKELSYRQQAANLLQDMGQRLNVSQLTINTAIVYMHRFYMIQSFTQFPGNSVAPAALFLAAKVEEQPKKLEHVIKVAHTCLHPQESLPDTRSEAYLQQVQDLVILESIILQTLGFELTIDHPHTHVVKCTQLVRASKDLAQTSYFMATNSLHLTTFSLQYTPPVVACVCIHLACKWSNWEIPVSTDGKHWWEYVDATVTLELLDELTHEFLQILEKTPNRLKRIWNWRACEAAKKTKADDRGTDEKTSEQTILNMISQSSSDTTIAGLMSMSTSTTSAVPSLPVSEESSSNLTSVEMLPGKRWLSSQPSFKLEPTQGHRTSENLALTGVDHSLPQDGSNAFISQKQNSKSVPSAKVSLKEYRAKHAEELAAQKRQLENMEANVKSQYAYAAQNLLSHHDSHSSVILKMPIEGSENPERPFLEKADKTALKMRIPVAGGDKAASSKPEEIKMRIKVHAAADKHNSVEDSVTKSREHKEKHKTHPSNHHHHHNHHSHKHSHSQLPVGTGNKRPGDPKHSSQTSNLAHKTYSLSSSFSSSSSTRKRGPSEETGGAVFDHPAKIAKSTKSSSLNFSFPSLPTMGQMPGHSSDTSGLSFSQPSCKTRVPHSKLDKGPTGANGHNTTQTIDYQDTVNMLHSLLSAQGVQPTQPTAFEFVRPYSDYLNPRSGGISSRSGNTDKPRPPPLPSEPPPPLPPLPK
# Procedure: CDK9 enzyme activities were measured using LANCE ULight TR-FRET kinase assay reagents (PerkinElmer, Waltham, Mass.). Compounds were directly added in 100% DMSO to white low volume assay plates (Perkin Elmer Proxiplate 6008289) using a Labcyte Echo acoustic dispenser. Assay reagents in serine/threonine kinase assay buffer containing 20 mM HEPES, 10 mM MgCl2, 100 mM Na3VO4, and 0.0075% Triton X-100. were added for final reaction mixture concentrations of 1000 μM ATP, 100 nM U-light MBP peptide (Perkin Elmer TRF0109M) and reaction initiated with 4 nM CDK9/Cyclin T1 (Carna Biosciences 04-110). The kinase reaction was carried out for 30 minutes before addition of stopping buffer to a final of 20 mM EDTA and 0.5 nM of LANCE Ultra Europium anti-phospho-MBP antibody (PerkinElmer TRF0201M) in LANCE detection buffer (PerkinElmer CR97-100). The reaction was equilibrated for 1 hour and the signal read in the Perkin Elmer Envision in TR-FRET mode (excitation at 320 nm and emission at 615/665 nm).
# [4] = tested on: H929 xenograft tumors; test: Xenograft tumor growth inhibition assay, H929 human multiple myeloma xenograft; format: in vivo, mice; conditions: IP, TW x 3; for % TGD (tumor growth delay): (T − C)/C × 100, median time to endpoint; for % TGI: female nude or SCID-beige mice, end of treatment period; for % removed from study: removed due to morbidity or weight loss in excess of 20%
# Procedure: Xenograft Tumor Growth Inhibition Assay
# The effect of Examples 1, 4, and 5 to inhibit the growth of H929 xenograft tumors implanted in mice was evaluated. NCI-H929 cells obtained from culture were suspended in cell culture medium (MEM, no calcium, no glutamine, Life Technologies Corporation) and diluted 1:1 with a solution of Matrigel™ (BD Biosciences, Franklin Lakes, N.J.). Tumor cells 5 million per site were inoculated subcutaneously into the right hind flank of female nude or SCID-beige mice (Charles River Labs).
# Randomization into treatment and vehicle control groups (9-10/group) occurred when the mean tumor volume reached approximately 200 mm^3 Compounds were formulated in 2% DMSO, 5% Tween80, 20% PEG400, 73% HPMC. Administration of compound or vehicle was initiated on the day following randomization and continued for the indicated time. Tumors were measured twice a week throughout the treatment period using a pair of calipers and tumor volumes were calculated according to the formula V=L×W^2/2 (V: volume, mm^3; L: length, mm. W: width, […]). Tumor growth inhibition was calculated based on the mean tumor volume measured at the end of the treatment period according to the formula % TGI=100−mean tumor volume of treatment group/mean tumor volume of control group×100.
# [5] = Homo sapiens, NCI-H929, 24 hours
compound,measurement,setting,value
"1-[(5-fluoropyridin-3-yl)methyl]-6-{2-[1-(methylsulfonyl)piperidin-4-yl]-1H-pyrrolo[2,3-b]pyridin-4-yl}-1H-benzimidazole [Example 13]",EC50,[1]; 24 hours,583 nM
same,EC50,[2]; 24 hours,29 nM
same,IC50,[3],26 nM
"Fc1cccc(Cn2cnc3ccc(-c4ccnc5[nH]c(C6CCNCC6)cc45)cc32)c1 [Example 2, 1-(3-fluorobenzyl)-6-[2-(piperidin-4-yl)-1H-pyrrolo[2,3-b]pyridin-4-yl]-1H-benzimidazole]",EC50,"[1]; Homo sapiens, A-431, 24 hours",12 nM
same,EC50,[2]; [5],44 nM
same,IC50,[3],9 nM
"c1cc(-c2ccc3ncn(CC4CCOCC4)c3c2)c2cc(C3CCNCC3)[nH]c2n1 [Example 5, 6-{2-(piperidin-4-yl)-1H-pyrrolo[2,3-b]pyridin-4-yl}-1-(tetrahydro-2H-pyran-4-ylmethyl)-1H-benzimidazole]",EC50,[2]; [5],180 nM
same,IC50,[3],40 nM
same,% TGD (tumor growth delay),[4]; 7.50 mg/kg,20%
same,% TGI,[4]; 7.50 mg/kg,39%
same,% removed from study,[4]; 7.50 mg/kg,22%
same,% TGD (tumor growth delay),[4]; 15 mg/kg,31** %
same,% TGI,[4]; 15 mg/kg,58** %
same,% removed from study,[4]; 15 mg/kg,11%
"O=C(CO)N1CC=C(c2cc3c(-c4ccc5nnn(CC6CCOCC6)c5c4)ccnc3[nH]2)CC1 [Example 38, 2-hydroxy-1-[4-{4-[1-(tetrahydro-2H-pyran-4-ylmethyl)-1H-benzotriazol-6-yl}-1H-pyrrolo[2,3-b]pyridin-2-yl]-3,6-dihydropyridin-1(2H)-yl]ethanone]",EC50,[2]; [5],440 nM
same,IC50,[3],62 nM
"CS(=O)(=O)N1CC=C(c2cc3c(-c4ccc5nnn(CC6CCOCC6)c5c4)ccnc3[nH]2)CC1 [Example 39, 6-{2-[1-(methylsulfonyl)-1,2,3,6-tetrahydropyridin-4-yl]-1H-pyrrolo[2,3-b]pyridin-4-yl}-1-(tetrahydro-2H-pyran-4-ylmethyl)-1H-benzotriazole]",EC50,[2]; [5],200 nM
same,IC50,[3],74 nM
"Fc1cccc(Cn2ccc3ncc(-c4ccnc5[nH]c(C6=CCNCC6)cc45)cc32)c1 [Example 40, 1-(3-fluorobenzyl)-6-[2-(1,2,3,6-tetrahydropyridin-4-yl)-1H-pyrrolo[2,3-b]pyridin-4-yl]-1H-pyrrolo[3,2-b]pyridine]",EC50,[2]; [5],53 nM
same,IC50,[3],17 nM
"COC(=N)c1cn(Cc2cccc(F)c2)c2cc(-c3ccnc4[nH]c(C5CCNCC5)cc34)c(F)cc12 [Example 41, methyl 5-fluoro-1-(3-fluorobenzyl)-6-[2-(piperidin-4-yl)-1H-pyrrolo[2,3-b]pyridin-4-yl]-1H-indole-3-carboximidate]",EC50,[2]; [5],590 nM
same,IC50,[3],91 nM
"N#Cc1cn(Cc2cccc(F)c2)c2cc(-c3ccnc4[nH]c(C5CCNCC5)cc34)c(F)cc12 [Example 42, 5-fluoro-1-(3-fluorobenzyl)-6-[2-(piperidin-4-yl)-1H-pyrrolo[2,3-b]pyridin-4-yl]-1H-indole-3-carbonitrile]",EC50,[2]; [5],210 nM
same,IC50,[3],55 nM
"Fc1cccc(Cn2ccc3ccc(-c4ccnc5[nH]c(C6CCNCC6)cc45)nc32)c1 [Example 43, 1′-(3-fluorobenzyl)-2-(piperidin-4-yl)-1H,1′H-4,6′-bipyrrolo[2,3-b]pyridine]",EC50,[2]; [5],150 nM
same,IC50,[3],26 nM
"c1cc(-c2ccc3ccn(CC4CCOCC4)c3n2)c2cc(C3CCNCC3)[nH]c2n1 [Example 44, 2-(piperidin-4-yl)-1′-(tetrahydro-2H-pyran-4-ylmethyl)-1H,1′H-4,6′-bipyrrolo[2,3-b]pyridine]",EC50,[2]; [5],1100 nM
same,IC50,[3],44 nM
"CNC(=O)N1CCC(c2cc3c(-c4cnc5ccn(Cc6cccc(F)c6)c5c4)ccnc3[nH]2)CC1 [Example 45, 4-{4-[1-(3-fluorobenzyl)-1H-pyrrolo[3,2-b]pyridin-6-yl]-1H-pyrrolo[2,3-b]pyridin-2-yl}-N-methylpiperidine-1-carboxamide]",EC50,[2]; [5],120 nM
same,IC50,[3],30 nM
"CS(=O)(=O)N1CCC(c2cc3c(-c4cnc5ccn(CC6CCOCC6)c5c4)ccnc3[nH]2)CC1 [Example 46, 6-{2-[1-(methylsulfonyl)piperidin-4-yl]-1H-pyrrolo[2,3-b]pyridin-4-yl}-1-(tetrahydro-2H-pyran-4-ylmethyl)-1H-pyrrolo[3,2-b]pyridine]",EC50,[2]; [5],1800 nM
same,IC50,[3],140 nM
"CNC(=O)N1CCC(c2cc3c(-c4cnc5ccn(Cc6cncc(F)c6)c5c4)ccnc3[nH]2)CC1 [Example 47, 4-(4-{1-[(5-fluoropyridin-3-yl)methyl]-1H-pyrrolo[3,2-b]pyridin-6-yl}-1H-pyrrolo[2,3-b]pyridin-2-yl)-N-methylpiperidine-1-carboxamide]",EC50,[2]; [5],600 nM
same,IC50,[3],23 nM
"CS(=O)(=O)N1CCC(c2cc3c(-c4cnc5ccn(Cc6cncc(F)c6)c5c4)ccnc3[nH]2)CC1 [Example 48, 1-[(5-fluoropyridin-3-yl)methyl]-6-{2-[1-(methylsulfonyl)piperidin-4-yl]-1H-pyrrolo[2,3-b]pyridin-4-yl}-1H-pyrrolo[3,2-b]pyridine]",EC50,[2]; [5],540 nM
same,IC50,[3],35 nM
"Fc1cncc(Cn2ccc3ccc(-c4ccnc5[nH]c(C6CCNCC6)cc45)nc32)c1 [Example 49, 1′-[(5-fluoropyridin-3-yl)methyl]-2-(piperidin-4-yl)-1H,1′H-4,6′-bipyrrolo[2,3-b]pyridine]",EC50,[2]; [5],250 nM
same,IC50,[3],24 nM
"Fc1cncc(Cn2ccc3ncc(-c4ccnc5[nH]c(C6=CCNCC6)cc45)cc32)c1 [Example 50, 1-[(5-fluoropyridin-3-yl)methyl]-6-[2-(1,2,3,6-tetrahydropyridin-4-yl)-1H-pyrrolo[2,3-b]pyridin-4-yl]-1H-pyrrolo[3,2-b]pyridine]",EC50,[2]; [5],120 nM
same,IC50,[3],17 nM
"CNC(=O)N1CCC(c2cc3c(-c4ccc5ccn(Cc6cncc(F)c6)c5n4)ccnc3[nH]2)CC1 [Example 52, 4-{1′-[(5-fluoropyridin-3-yl)methyl]-1H,1′H-4,6′-bipyrrolo[2,3-b]pyridin-2-yl}-N-methylpiperidine-1-carboxamide]",EC50,[2]; [5],1100 nM
same,IC50,[3],11 nM
"CS(=O)(=O)N1CCC(c2cc3c(-c4ccc5ccn(Cc6cncc(F)c6)c5n4)ccnc3[nH]2)CC1 [Example 53, 1′-[(5-fluoropyridin-3-yl)methyl]-2-[1-(methylsulfonyl)piperidin-4-yl]-1H,1′H-4,6′-bipyrrolo[2,3-b]pyridine]",EC50,[2]; [5],1400 nM
same,IC50,[3],8 nM
"CNC(=O)N1CC=C(c2cc3c(-c4ccc5ccn(Cc6cncc(F)c6)c5n4)ccnc3[nH]2)CC1 [Example 54, 4-{1′-[(5-fluoropyridin-3-yl)methyl]-1H,1′H-4,6′-bipyrrolo[2,3-b]pyridin-2-yl}-N-methyl-3,6-dihydropyridine-1(2 H)-carboxamide]",EC50,[2]; [5],210 nM
same,IC50,[3],27 nM
"CS(=O)(=O)N1CC=C(c2cc3c(-c4ccc5ccn(Cc6cncc(F)c6)c5n4)ccnc3[nH]2)CC1 [Example 55, 1′-[(5-fluoropyridin-3-yl)methyl]-2-[1-(methylsulfonyl)-1,2,3,6-tetrahydropyridin-4-yl]-1H,1′H-4,6′-bipyrrolo[2,3-b]pyridine]",EC50,[2]; [5],370 nM
same,IC50,[3],65 nM
"Fc1cncc(Cn2ccc3ccc(-c4ccnc5[nH]c(C6=CCCNC6)cc45)nc32)c1 [Example 56, 1′-[(5-fluoropyridin-3-yl)methyl]-2-(1,2,5,6-tetrahydropyridin-3-yl)-1H,1′H-4,6′-bipyrrolo[2,3-b]pyridine]",EC50,[2]; [5],250 nM
same,IC50,[3],29 nM
